# Source: patent US20250154198A1, “PEPTIDE INHIBITORS OF INTERLEUKIN-23 RECEPTOR” (Zealand Pharma A/S, priority 2021, published 2025)
# *1 amine or outer side, *2 acyl side, *3 side chain or, on linkers, in order; H or OH if unused. Where a SMILES comes first, the peptide text is derived from it. Bridges are numbered along the chain shown (N, C = ends). [ ]: non-standard residue; d: D form. NHCH2(1,3-C6H4)CH2CO = O=C(Cc1cccc(CN[*:1])c1)[*:2]; dTrp(6-F) = N[C@H](Cc1c[nH]c2cc(F)ccc12)C(=O)O; αMeAla(3-pyridyl) = C[C@](N)(Cc1cccnc1)C(=O)O; Phe(3,4-Me2) = Cc1ccc(C[C@H](N)C(=O)O)cc1C; Phe(4-Me) = Cc1ccc(C[C@H](N)C(=O)O)cc1; dPhe(4-F) = N[C@H](Cc1ccc(F)cc1)C(=O)O; 2Nal = N[C@@H](Cc1ccc2ccccc2c1)C(=O)O; AEF = NCCOc1ccc(C[C@H](N)C(=O)O)cc1; NMeR = CN[C@@H](CCCNC(=N)N)C(=O)O; X1 = O=C(Cc1ccc(CN[*:1])cc1)[*:2]; αMeL = CC(C)C[C@](C)(N)C(=O)O; CH2COCH2 = O=C(C[*:1])C[*:2]; Phg = N[C@H](C(=O)O)c1ccccc1; αMeV = CC(C)[C@](C)(N)C(=O)O; 3Amb = NCc1cccc(C(=O)O)c1; Dab = NCC[C@H](N)C(=O)O
# Assay: Peptide stability in simulated intestinal fluid (SIF)
# Type: in vitro ADME
# Settings: Table 3-2, porcine pancreatin, pH 6.8, 37° C., 10 μM; for remaining at 4 h, 10 μM / remaining at 1 h, 10 μM: pig, simulated intestinal fluid (SIF) with porcine pancreatin; for remaining at 4 h, 10 μM: read-out: SIF (% remaining 4 h); for remaining at 1 h, 10 μM: read-out: SIF (% remaining 1 h)
# Description: Determination of Peptide Stability in Simulated Gastric Fluid (SGF) and Simulated Intestinal Fluid (SIF)
# SGF was prepared by dissolving sodium chloride (0.2 g) in 50 mL of water. A volume of 0.7 mL of 10 M HCl was added to adjust the pH of the solution to 1.2 and the volume made up to 100 mL with water. […] SIF was prepared by dissolving monobasic potassium phosphate (0.68 g) in 50 mL of water and adjusting the pH to 6.8 with 1 M NaOH. The volume was subsequently made up to 100 mL with water. 200 mg porcine pancreatin (P1625, Sigma Aldrich) was gently dissolved into 20 mL preheated (37° C.) solution (10 g/L) immediately prior to the incubation.
# The incubation was performed at 37° C. with gentle shaking. […] After the last timepoint, the sampling plate was mixed for 10 min on a shaking table and centrifuged 10 min at 2200 g. 70 μL resulting supernatant was diluted with 150 μL water, mixed and centrifugated before analysis by liquid chromatography high resolution mass spectrometry. […] Percent remaining at each timepoint was calculated relative to timepoint zero based on absolute peak areas.
Compound,"remaining at 4 h, 10 μM",SIF (% remaining 4 h),"remaining at 1 h, 10 μM"
"CC[C@H](C)[C@@H]1NC(=O)Cc2ccc(cc2)CNC(=O)CC[C@@H](C(=O)N[C@@H](CCN)C(=O)N[C@@](C)(Cc2cccnc2)C(N)=O)NC(=O)[C@](C)(C(C)C)NC(=O)[C@@H](Cc2c[nH]c3cc(F)ccc23)NC(=O)[C@H](Cc2ccc(C)cc2)NC(=O)[C@@H]2CCNC(=O)CC[C@H](NC1=O)C(=O)N[C@@H](Cc1c[nH]c3ccccc13)C(=O)N[C@@H](CCC(N)=O)C(=O)N2 [Compound 177, [4-Aminomethyl-phenylacetyl](1c)*IE(2c)WQ[Dab](2c)[F(4-Me)][{d}6-F-Trp][2-Me-Val]E(1c)[Dab][2-Me-3-(3-Pyridyl)-Ala]-[NH2]] ([X1]IEWQ[Dab][Phe(4-Me)][dTrp(6-F)][αMeV]E[Dab][αMeAla(3-pyridyl)]-NH2; lactam 3-6, N-10)",63%,,
"CSCC[C@H](NC(=O)[C@@H]1CSCC(=O)CSC[C@H](NC(=O)[C@@H](N)CCC(=O)O)C(=O)N[C@@H](Cc2c[nH]c3ccccc23)C(=O)N[C@@H](CC(C)C)C(=O)N[C@H]2CSCC(=O)CSC[C@H](NC(=O)[C@H](CC(N)=O)NC(=O)[C@H](CCCNC(=N)N)NC(=O)[C@H](Cc3ccc(O)cc3)NC(=O)[C@H](Cc3ccc(O)cc3)NC2=O)C(=O)N[C@@H](CC(N)=O)C(=O)N1)C(N)=O (single isomer, unassigned) [I4 (isomer 3), H-EC(4a)WLC(5a)YYRNC(5a)NC(4a)M-[NH2], reference compound]",,0%,
"CC(=O)N[C@H]1CCCCNC(=O)CC[C@@H](C(=O)N[C@@H](CCCNC(=N)N)C(N)=O)NC(=O)[C@](C)(CC(C)C)NC(=O)[C@H](Cc2ccc3ccccc3c2)NC(=O)[C@H](Cc2ccc(OCCN)cc2)NC(=O)[C@@H]2CSCC(=O)CSC[C@H](NC(=O)[C@H](CO)NC1=O)C(=O)N[C@@H](Cc1c[nH]c3ccccc13)C(=O)N[C@@H](CCC(N)=O)C(=O)N2 [Compound 47, [Ac]-K(1c)SC(2a)WQC(2a)[Y(2-aminoethoxy)][2-Nal][2-Me-Leu]E(1c)R-[NH2]] (Ac-KSCWQC[AEF][2Nal][αMeL]ER-NH2; lactam 1-10; linker 3-6 via CH2COCH2)",0%,,2%
"CC[C@H](C)[C@@H]1NC(=O)Cc2ccc(cc2)CNC(=O)CC[C@@H](C(=O)N[C@@H](CCN)C(=O)N[C@@](C)(Cc2cccnc2)C(N)=O)NC(=O)[C@](C)(C(C)C)NC(=O)[C@H](Cc2ccc(C)c(C)c2)NC(=O)[C@H](Cc2ccc(OC)cc2)NC(=O)[C@@H]2CCNC(=O)CC[C@H](NC1=O)C(=O)N[C@@H](Cc1c[nH]c3ccccc13)C(=O)N[C@@H](CCC(N)=O)C(=O)N2 [Compound 166, [4-Aminomethyl-phenylacetyl](1c)*IE(2c)WQ[Dab](2c)[Y(Me)][F(3,4-Me)][2-Me-Val]E(1c)[Dab][2-Me-3-(3-Pyridyl)-Ala]-[NH2]] ([X1]IEWQ[Dab]Y(Me)[Phe(3,4-Me2)][αMeV]E[Dab][αMeAla(3-pyridyl)]-NH2; lactam 3-6, N-10)",86%,,
"CC(C)C[C@]1(C)NC(=O)[C@H](Cc2ccc3ccccc3c2)NC(=O)[C@H](Cc2ccc(OCCN)cc2)NC(=O)[C@@H]2CSCC(=O)CSC[C@H](NC(=O)[C@H](CO)NC(=O)c3cccc(c3)CNC(=O)CC[C@@H](C(=O)N(C)[C@@H](CCCNC(=N)N)C(N)=O)NC1=O)C(=O)N[C@@H](Cc1c[nH]c3ccccc13)C(=O)N[C@@H](CCC(N)=O)C(=O)N2 [Compound 43, [(3-Aminomethyl)benzoyl](1c)*SC(2a)WQC(2a)[Y(2-aminoethoxy)][2-Nal][2-Me-Leu]E(1c)[N-Me-Arg]-[NH2]] ([3Amb]SCWQC[AEF][2Nal][αMeL]E[NMeR]-NH2; linker 3-6 via CH2COCH2; lactam N-10)",33%,,
"CC(C)C[C@@H]1NC(=O)[C@H](Cc2c[nH]c3ccccc23)NC(=O)[C@H](Cc2c[nH]c3ccccc23)NC(=O)[C@@H]2CSCC(=O)CSC[C@H](NC(=O)[C@H]([C@@H](C)O)NC(=O)[C@@H](NC(=O)CN)CSCC(=O)CSC[C@@H](C(=O)N[C@@H](CO)C(N)=O)NC1=O)C(=O)N[C@@H](Cc1c[nH]c3ccccc13)C(=O)N[C@@H](CCC(=O)O)C(=O)N2 (single isomer, unassigned) [I1 (isomer 3), H-GC(1a)TC(2a)WEC(2a)WWLC(1a)S-[NH2], reference compound]",,0%,
"CC[C@H](C)[C@@H]1NC(=O)Cc2ccc(cc2)CNC(=O)CC[C@@H](C(=O)N[C@@H](CCN)C(=O)N[C@@](C)(Cc2cccnc2)C(N)=O)NC(=O)[C@](C)(C(C)C)NC(=O)[C@H](Cc2ccc(C)c(C)c2)NC(=O)[C@H](c2ccccc2)NC(=O)[C@@H]2CCNC(=O)CC[C@H](NC1=O)C(=O)N[C@@H](Cc1c[nH]c3ccccc13)C(=O)N[C@@H](CCC(N)=O)C(=O)N2 [Compound 174, [4-Aminomethyl-phenylacetyl](1c)*IE(2c)WQ[Dab](2c)[Phg][F(3,4-Me)][2-Me-Val]E(1c)[Dab][2-Me-3-(3-Pyridyl)-Ala]-[NH2]] ([X1]IEWQ[Dab][Phg][Phe(3,4-Me2)][αMeV]E[Dab][αMeAla(3-pyridyl)]-NH2; lactam 3-6, N-10)",86%,,
"CC(C)C[C@@H]1NC(=O)[C@H](Cc2c[nH]c3ccccc23)NC(=O)[C@H](Cc2c[nH]c3ccccc23)NC(=O)[C@@H]2CSCC(=O)CSC[C@H](NC(=O)[C@H](CO)NC(=O)[C@@H](NC(=O)[C@@H](N)CC(=O)O)CSCC(=O)CSC[C@@H](C(=O)N[C@@H](CCCNC(=N)N)C(N)=O)NC1=O)C(=O)N[C@@H](Cc1c[nH]c3ccccc13)C(=O)N[C@@H](CCC(N)=O)C(=O)N2 (single isomer, unassigned) [I3 (isomer 3), H-DC(1a)SC(2a)WQC(2a)WWLC(1a)R-[NH2], reference compound]",,0%,
"CC[C@H](C)[C@@H]1NC(=O)Cc2ccc(cc2)CNC(=O)CC[C@@H](C(=O)N[C@@H](CCN)C(=O)N[C@@](C)(Cc2cccnc2)C(N)=O)NC(=O)[C@](C)(C(C)C)NC(=O)[C@H](Cc2ccc(C)c(C)c2)NC(=O)[C@@H](Cc2ccc(F)cc2)NC(=O)[C@@H]2CCNC(=O)CC[C@H](NC1=O)C(=O)N[C@@H](Cc1c[nH]c3ccccc13)C(=O)N[C@@H](CCC(N)=O)C(=O)N2 [Compound 170, [4-Aminomethyl-phenylacetyl](1c)*IE(2c)WQ[Dab](2c)[{d}F(4-F)][F(3,4-Me)][2-Me-Val]E(1c)[Dab][2-Me-3-(3-Pyridyl)-Ala]-[NH2]] ([X1]IEWQ[Dab][dPhe(4-F)][Phe(3,4-Me2)][αMeV]E[Dab][αMeAla(3-pyridyl)]-NH2; lactam 3-6, N-10)",62%,,
"CC(C)C[C@]1(C)NC(=O)[C@H](Cc2ccc3ccccc3c2)NC(=O)[C@H](Cc2ccc(OCCN)cc2)NC(=O)[C@@H]2CSCC(=O)CSC[C@H](NC(=O)[C@H](CO)NC(=O)Cc3cccc(c3)CNC(=O)CC[C@@H](C(=O)N[C@H](CCCNC(=N)N)C(N)=O)NC1=O)C(=O)N[C@@H](Cc1c[nH]c3ccccc13)C(=O)N[C@@H](CCC(N)=O)C(=O)N2 [Compound 92, [3-Aminomethyl-phenylacetyl](1c)*SC(2a)WQC(2a)[Y(2-aminoethoxy)][2-Nal][2-Me-Leu]E(1c)[{d}R]-[NH2]] ([NHCH2(1,3-C6H4)CH2CO]SCWQC[AEF][2Nal][αMeL]E[dR]-NH2; linker 3-6 via CH2COCH2; lactam N-10)",102%,,
"CC(C)C[C@]1(C)NC(=O)[C@H](Cc2ccc3ccccc3c2)NC(=O)[C@H](Cc2c[nH]c3ccccc23)NC(=O)[C@@H]2CSCC(=O)CSC[C@H](NC(=O)[C@H](CO)NC(=O)c3cccc(c3)CNC(=O)CC[C@@H](C(=O)N[C@@H](CCCNC(=N)N)C(N)=O)NC1=O)C(=O)N[C@@H](Cc1c[nH]c3ccccc13)C(=O)N[C@@H](CCC(N)=O)C(=O)N2 [Compound 40, [(3-Aminomethyl)benzoyl](1c)*SC(2a)WQC(2a)W[2-Nal][2-Me-Leu]E(1c)R-[NH2]] ([3Amb]SCWQCW[2Nal][αMeL]ER-NH2; linker 3-6 via CH2COCH2; lactam N-10)",,,70%
